Species on record: Rattus norvegicus
Experiment: Open TG-GATES - Regimen: Daily Repeat
Format: toxicity, organism-based, Sprague-Dawley
Parameters: regimen Daily Repeat, gender Male, age 6 weeks
Conditions: in vivo, po, route gavage; for Bas / Eos / Fbg / Hb / Ht / MCV / Mono / Neu / Plat / RBC / Ret / WBC / MCHC: tissue Blood; for KIDNEY_L / KIDNEY_R / KIDNEY_TOTAL: tissue Kidney; for LIVER: tissue Liver; for ALP / AST / BUN / CRE / DBIL / GLC / IP / K / LDH / Na / PL / RALB / TBIL / TC / TG / TP / gamma-GTP: tissue Plasma
[1] = 60 mg/kg, 72 h, dose level Middle, time 3 day
[2] = 60 mg/kg, […], dose level Middle, time 7 day
[3] = 60 mg/kg, […], dose level Middle, time 14 day
[4] = 60 mg/kg, […], dose level Middle, time 28 day
[5] = 200 mg/kg, 72 h, dose level High, time 3 day
[6] = 200 mg/kg, […], dose level High, time 7 day
[7] = 200 mg/kg, […], dose level High, time 14 day
[8] = 200 mg/kg, […], dose level High, time 28 day

Structure (SMILES): CO[C@H]1/C=C/O[C@@]2(C)Oc3c(C)c(O)c4c(O)c(c(/C=N/N5CCN(C)CC5)c(O)c4c3C2=O)NC(=O)/C(C)=C\C=C\[C@H](C)[C@H](O)[C@@H](C)[C@@H](O)[C@@H](C)[C@H](OC(C)=O)[C@@H]1C [RIFAMPIN]
- TERMINAL_BW [1]: 238.2 g
- Bas [1]: 0%
- Eos [1]: 1%
- Fbg [1]: 236.6 mg/dL
- Hb [1]: 13.8 g/dL
- Ht [1]: 41.4%
- MCV [1]: 62.9 fL
- Mono [1]: 5.8%
- Neu [1]: 7.4%
- Plat [1]: 118.3 x10_4/uL
- RBC [1]: 658.2 x10_4/ul
- Ret [1]: 5.7%
- KIDNEY_L [1]: 1 g
- KIDNEY_R [1]: 1 g
- KIDNEY_TOTAL [1]: 2 g
- LIVER [1]: 11.3 g
- ALP [1]: 841.6 IU/L
- AST [1]: 60.4 IU/L
- BUN [1]: 19 mg/dL
- CRE [1]: 0.6 mg/dL
- DBIL [1]: 0.02 mg/dL
- GLC [1]: 189 mg/dL
- IP [1]: 9 mg/dL
- K [1]: 4.7 meq/L
- LDH [1]: 98.8 IU/L
- Na [1]: 139.2 meq/L
- PL [1]: 135.4 mg/dL
- RALB [1]: 3.6 g/dL
- TBIL [1]: 0.4 mg/dL
- TC [1]: 83 mg/dL
- TG [1]: 71 mg/dL
- TP [1]: 5.7 g/dL
- gamma-GTP [1]: 1 IU/L
- TERMINAL_BW [2]: 259.9 g
- TERMINAL_BW [3]: 298.5 g
- TERMINAL_BW [4]: 379.8 g
- Bas [2]: 0%
- Eos [2]: 0.6%
- Fbg [2]: 239.6 mg/dL
- Hb [2]: 14.1 g/dL
- Ht [2]: 42.6%
- MCV [2]: 62.5 fL
- Mono [2]: 5.2%
- Neu [2]: 7%
- Plat [2]: 107 x10_4/uL
- RBC [2]: 683.2 x10_4/ul
- Ret [2]: 5.7%
- WBC [2]: 130.9 x10_2/uL
- Bas [3]: 0%
- Eos [3]: 0.6%
- Fbg [3]: 226.6 mg/dL
- Hb [3]: 15.2 g/dL
- Ht [3]: 44.9%
- MCHC [3]: 33.8%
- MCV [3]: 60.6 fL
- Mono [3]: 3.2%
- Neu [3]: 3.4%
- Plat [3]: 115.2 x10_4/uL
- RBC [3]: 742.6 x10_4/ul
- Ret [3]: 3.5%
- WBC [3]: 161.2 x10_2/uL
- Bas [4]: 0%
- Eos [4]: 1%
- Fbg [4]: 226.4 mg/dL
- Hb [4]: 15.2 g/dL
- Ht [4]: 44.9%
- MCHC [4]: 33.8%
- MCV [4]: 55.8 fL
- Mono [4]: 3.4%
- Neu [4]: 9.6%
- Plat [4]: 117.9 x10_4/uL
- RBC [4]: 803.6 x10_4/ul
- Ret [4]: 2.3%
- WBC [4]: 138.4 x10_2/uL
- KIDNEY_L [2]: 1.1 g
- KIDNEY_R [2]: 1.1 g
- KIDNEY_TOTAL [2]: 2.2 g
- KIDNEY_L [3]: 1.1 g
- KIDNEY_R [3]: 1.2 g
- KIDNEY_TOTAL [3]: 2.3 g
- KIDNEY_L [4]: 1.3 g
- KIDNEY_R [4]: 1.3 g
- KIDNEY_TOTAL [4]: 2.7 g
- LIVER [2]: 11.6 g
- LIVER [3]: 12.9 g
- LIVER [4]: 14.8 g
- ALP [2]: 813.8 IU/L
- AST [2]: 64.6 IU/L
- BUN [2]: 16.8 mg/dL
- CRE [2]: 0.5 mg/dL
- DBIL [2]: 0.032 mg/dL
- GLC [2]: 193.6 mg/dL
- IP [2]: 8 mg/dL
- K [2]: 5 meq/L
- LDH [2]: 89.4 IU/L
- Na [2]: 139.2 meq/L
- PL [2]: 145.4 mg/dL
- RALB [2]: 3.9 g/dL
- TBIL [2]: 0.3 mg/dL
- TC [2]: 80.4 mg/dL
- TG [2]: 90.6 mg/dL
- TP [2]: 6 g/dL
- gamma-GTP [2]: 2.4 IU/L
- ALP [3]: 779.4 IU/L
- AST [3]: 58.6 IU/L
- BUN [3]: 18.2 mg/dL
- CRE [3]: 0.5 mg/dL
- DBIL [3]: 0.044 mg/dL
- GLC [3]: 193.4 mg/dL
- IP [3]: 7.7 mg/dL
- K [3]: 5.2 meq/L
- LDH [3]: 70.8 IU/L
- Na [3]: 139.8 meq/L
- PL [3]: 160.8 mg/dL
- RALB [3]: 3.9 g/dL
- TBIL [3]: 0.3 mg/dL
- TC [3]: 83.6 mg/dL
- TG [3]: 116.6 mg/dL
- TP [3]: 6.1 g/dL
- gamma-GTP [3]: 1.2 IU/L
- ALP [4]: 610.4 IU/L
- AST [4]: 55.6 IU/L
- BUN [4]: 18.4 mg/dL
- CRE [4]: 0.6 mg/dL
- DBIL [4]: 0.038 mg/dL
- GLC [4]: 185 mg/dL
- IP [4]: 7 mg/dL
- K [4]: 4.4 meq/L
- LDH [4]: 76.2 IU/L
- Na [4]: 140.6 meq/L
- PL [4]: 159.6 mg/dL
- RALB [4]: 4 g/dL
- TBIL [4]: 0.3 mg/dL
- TC [4]: 81.6 mg/dL
- TG [4]: 132 mg/dL
- TP [4]: 6.2 g/dL
- gamma-GTP [4]: 1.2 IU/L
- TERMINAL_BW [5]: 223.8 g
- Bas [5]: 0%
- Eos [5]: 1%
- Fbg [5]: 229 mg/dL
- Hb [5]: 14.3 g/dL
- Ht [5]: 43.3%
- MCHC [5]: 33.1%
- MCV [5]: 63.4 fL
- Mono [5]: 5%
- Neu [5]: 2.6%
- Plat [5]: 122.5 x10_4/uL
- RBC [5]: 684 x10_4/ul
- Ret [5]: 3.9%
- WBC [5]: 123.3 x10_2/uL
- KIDNEY_L [5]: 1 g
- KIDNEY_R [5]: 1 g
- KIDNEY_TOTAL [5]: 2.1 g
- LIVER [5]: 10.2 g
- ALP [5]: 864.8 IU/L
- AST [5]: 61.8 IU/L
- BUN [5]: 15.8 mg/dL
- CRE [5]: 0.5 mg/dL
- DBIL [5]: 0.1 mg/dL
- GLC [5]: 189 mg/dL
- IP [5]: 8.8 mg/dL
- K [5]: 5.1 meq/L
- LDH [5]: 204.6 IU/L
- Na [5]: 138.8 meq/L
- PL [5]: 108 mg/dL
- RALB [5]: 3.7 g/dL
- TBIL [5]: 0.6 mg/dL
- TC [5]: 67 mg/dL
- TG [5]: 48.2 mg/dL
- TP [5]: 6 g/dL
- gamma-GTP [5]: 1.2 IU/L
- TERMINAL_BW [6]: 249 g
- TERMINAL_BW [7]: 298.6 g
- TERMINAL_BW [8]: 356.4 g
- Bas [6]: 0%
- Eos [6]: 0.4%
- Fbg [6]: 226.8 mg/dL
- Hb [6]: 13.8 g/dL
- Ht [6]: 41.1%
- MCHC [6]: 33.5%
- MCV [6]: 62.9 fL
- Mono [6]: 6.4%
- Neu [6]: 7.4%
- Plat [6]: 106.5 x10_4/uL
- RBC [6]: 653.6 x10_4/ul
- Ret [6]: 4.7%
- WBC [6]: 165.2 x10_2/uL
- Bas [7]: 0%
- Eos [7]: 0.2%
- Fbg [7]: 222.4 mg/dL
- Hb [7]: 13.9 g/dL
- Ht [7]: 41.2%
- MCHC [7]: 33.7%
- MCV [7]: 58.7 fL
- Mono [7]: 3.4%
- Neu [7]: 4.8%
- Plat [7]: 114.3 x10_4/uL
- RBC [7]: 702.8 x10_4/ul
- Ret [7]: 4.2%
- WBC [7]: 185.6 x10_2/uL
- Bas [8]: 0%
- Eos [8]: 0.6%
- Fbg [8]: 214.4 mg/dL
- Hb [8]: 14 g/dL
- Ht [8]: 42.2%
- MCHC [8]: 33.1%
- MCV [8]: 53.7 fL
- Mono [8]: 5.4%
- Neu [8]: 8.8%
- Plat [8]: 111.8 x10_4/uL
- RBC [8]: 786.6 x10_4/ul
- Ret [8]: 2.4%
- WBC [8]: 116.3 x10_2/uL
- KIDNEY_L [6]: 1 g
- KIDNEY_R [6]: 1 g
- KIDNEY_TOTAL [6]: 2 g
- KIDNEY_L [7]: 1.2 g
- KIDNEY_R [7]: 1.2 g
- KIDNEY_TOTAL [7]: 2.4 g
- KIDNEY_L [8]: 1.3 g
- KIDNEY_R [8]: 1.3 g
- KIDNEY_TOTAL [8]: 2.6 g
- LIVER [6]: 12.2 g
- LIVER [7]: 13.9 g
- LIVER [8]: 16.8 g
- ALP [6]: 976.6 IU/L
- AST [6]: 62.2 IU/L
- BUN [6]: 17.4 mg/dL
- CRE [6]: 0.5 mg/dL
- DBIL [6]: 0.2 mg/dL
- GLC [6]: 181.2 mg/dL
- IP [6]: 9 mg/dL
- K [6]: 4.9 meq/L
- LDH [6]: 158.4 IU/L
- Na [6]: 139.8 meq/L
- PL [6]: 139.6 mg/dL
- RALB [6]: 3.9 g/dL
- TBIL [6]: 0.5 mg/dL
- TC [6]: 74.8 mg/dL
- TG [6]: 75.8 mg/dL
- TP [6]: 6.2 g/dL
- gamma-GTP [6]: 1.8 IU/L
- ALP [7]: 781 IU/L
- AST [7]: 60.2 IU/L
- CRE [7]: 0.5 mg/dL
- DBIL [7]: 0.2 mg/dL
- GLC [7]: 182.2 mg/dL
- IP [7]: 8.3 mg/dL
- K [7]: 4.9 meq/L
- LDH [7]: 163.8 IU/L
- Na [7]: 140.8 meq/L
- PL [7]: 144.8 mg/dL
- RALB [7]: 4.1 g/dL
- TBIL [7]: 0.4 mg/dL
- TC [7]: 82.2 mg/dL
- TG [7]: 73 mg/dL
- TP [7]: 6.1 g/dL
- gamma-GTP [7]: 1.8 IU/L
- ALP [8]: 771 IU/L
- AST [8]: 54.8 IU/L
- BUN [8]: 19.2 mg/dL
- CRE [8]: 0.5 mg/dL
- DBIL [8]: 0.3 mg/dL
- GLC [8]: 185.4 mg/dL
- K [8]: 4.4 meq/L
- LDH [8]: 160.6 IU/L
- Na [8]: 141.2 meq/L
- PL [8]: 134 mg/dL
- RALB [8]: 4.1 g/dL
- TBIL [8]: 0.6 mg/dL
- TC [8]: 76 mg/dL
- TG [8]: 75.4 mg/dL
- TP [8]: 6.3 g/dL
- gamma-GTP [8]: 0.8 IU/L
